Columns and labels:
Type in all cases: cell-based
RARγ = target: T1, RARγ (Homo sapiens, UniProt P13631); experiment: Transactivation assay for RAR gamma (gal4-RAR fusion, luciferase reporter, COS-7 cells); conditions: ratio of test compound EC50 to that of atRA; inactive = no agonist action at the highest concentration tested
T1 construct: gal4 (fusion partner); expressed in transfected cells; host or cells: COS-7
T1 sequence (P13631 185-419 limits assumed): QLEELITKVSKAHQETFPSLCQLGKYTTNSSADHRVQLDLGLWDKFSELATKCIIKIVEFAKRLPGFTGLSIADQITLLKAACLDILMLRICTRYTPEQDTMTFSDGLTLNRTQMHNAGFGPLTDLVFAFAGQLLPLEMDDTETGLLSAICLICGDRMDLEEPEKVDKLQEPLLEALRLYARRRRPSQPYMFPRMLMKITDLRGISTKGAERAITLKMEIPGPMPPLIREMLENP
Protocol: (§1) Transcriptional transactivation assays were performed with gal4 fusion receptor constructs, created using each of the RAR ligand binding domains, co-transfected with the pFR-luc (Stratagene™) reporter construct in COS-7 cells.
(§2) Briefly, on day 1, 96 well plates were seeded with 8000 cells per well then left to recover overnight. On day 2, the cells were co-transfected with 100 ng of reporter plasmid and 10 ng of the appropriate receptor plasmid per well using lipofectamine (Invitrogen™). On day 3, the lipofectamine containing media was replaced by a DMEM without phenol red, followed by the addition of test compound dissolved in 1 μL of DMSO to each well's 100 μL total volume. Finally, on day 4, the cells were lysed and their luciferase substrate was provided by the BrightGlo™ reagent (Promega™), the plates were then read on the MicroBeta TriLux™ (Perkin Elmer™).
(§3) Where replicate data has been generated, the data are quoted as a ratio of the mean EC50 from the separate experiments.

RARβ = target: T2, RARβ (Homo sapiens, UniProt P10826); experiment: Transactivation assay for RAR beta (gal4-RAR fusion, luciferase reporter, COS-7 cells); conditions: ratio of test compound EC50 to that of atRA; inactive = no agonist action at the highest concentration tested
T2 construct: gal4 (fusion partner); expressed in transfected cells; host or cells: COS-7
T2 sequence (P10826 183-417 limits assumed): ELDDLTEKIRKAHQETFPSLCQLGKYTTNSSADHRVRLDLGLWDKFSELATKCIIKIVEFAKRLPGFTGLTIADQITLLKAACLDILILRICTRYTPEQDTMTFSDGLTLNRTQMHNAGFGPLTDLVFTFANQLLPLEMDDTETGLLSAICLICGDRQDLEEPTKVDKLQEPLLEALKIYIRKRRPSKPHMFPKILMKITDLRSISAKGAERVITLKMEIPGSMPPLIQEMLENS
Protocol: as §1, §2, §3

RARα = target: T3, RARα (Homo sapiens, UniProt P10276); experiment: Transactivation assay for RAR alpha (gal4-RAR fusion, luciferase reporter, COS-7 cells); conditions: for Improvement (RARα activity ratio) / Improvement (RARα/RARβ ratio): compared with XXX-03; for RARα/RARβ ratio (*): fold-selectivity for RARα over RARβ; for RARα activity ratio: ratio of test compound EC50 to that of atRA on the same plate
T3 construct: gal4 (fusion partner); expressed in transfected cells; host or cells: COS-7
T3 sequence (P10276 183-417 limits assumed): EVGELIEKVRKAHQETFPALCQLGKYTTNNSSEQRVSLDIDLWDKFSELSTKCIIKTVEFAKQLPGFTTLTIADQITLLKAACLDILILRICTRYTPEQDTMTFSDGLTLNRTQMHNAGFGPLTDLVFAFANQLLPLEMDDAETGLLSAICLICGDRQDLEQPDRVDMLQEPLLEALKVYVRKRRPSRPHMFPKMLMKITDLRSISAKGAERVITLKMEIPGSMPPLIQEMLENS
Protocol: as §1, §2, §3

| SMILES | RARγ activity ratio (RARγ) | RARβ activity ratio (RARβ) | Improvement (RARα activity ratio) (RARα) | Improvement (RARα/RARβ ratio) (RARα) | RARα/RARβ ratio (*) (RARα) | RARα activity ratio (RARα) |
| --- | --- | --- | --- | --- | --- | --- |
| COc1c(Cl)cc(C(=O)Nc2ccc(C(=O)O)c(C)c2)cc1OC(C)C [AAA-075, 4-(3-Chloro-5-isopropoxy-4-methoxybenzamido)-2-methylbenzoic acid] | 2394 | 1134 | – | – | 241 | 4.7 |
| CCOc1ccc(C(=O)Nc2ccc(C(=O)O)cc2)cc1C(F)(F)F [XXX-01, 4-(4-Ethoxy-3-(trifluoromethyl)benzamido)benzoic acid, reference compound] | inactive | 2570 | – | – | 7.9 | 327 |
| CCOc1c(Br)cc(C(=O)Nc2ccc(C(=O)O)c(C)c2)cc1Br [AAA-053, 4-(3,5-Dibromo-4-ethoxybenzamido)-2-methylbenzoic acid] | 414 | 1410 | – | – | 336 | 4.2 |
| Cc1cc(NC(=O)c2cc(Br)c(OC(C)C)c(Br)c2)ccc1C(=O)O [AAA-052, 4-(3,5-Dibromo-4-isopropoxybenzamido)-2-methylbenzoic acid] | 1923 | 21 | – | – | 84 | 0.25 |
| COc1c(Cl)cc(C(=O)Nc2ccc(C(=O)O)cc2)cc1OC1CCC1 [AAA-098, 4-(3-Chloro-5-cyclobutoxy-4-methoxybenzamido)benzoic acid] | 2955 | 433 | – | – | 36 | 12 |
| O=C(O)c1ccc(NC(=O)c2cc(Cl)c(OCC3CC3)c(Cl)c2)cc1 [AAA-010, 4-(3,5-Dichloro-4-(cyclopropylmethoxy)benzamido)benzoic acid] | inactive | 2530 | ~0.9-fold | ~3.5-fold | – | – |
| Cc1cc(NC(=O)c2cc(Cl)c(OC3CCCC3)c(Cl)c2)ccc1C(=O)O [AAA-054, 4-(3,5-Dichloro-4-(cyclopentyloxy)benzamido)-2-methylbenzoic acid] | 51 | 21 | – | – | 36 | 0.59 |
| Cc1cc(NC(=O)c2cc(F)c(OC(C)C)c(Cl)c2)ccc1C(=O)O [AAA-074, 4-(3-Chloro-5-fluoro-4-isopropoxybenzamido)-2-methylbenzoic acid] | 14500 | 32400 | – | – | 210 | 154 |

The remaining lines, values ahead:

| RARγ activity ratio (RARγ) | RARβ activity ratio (RARβ) | Improvement (RARα activity ratio) (RARα) | Improvement (RARα/RARβ ratio) (RARα) | RARα/RARβ ratio (*) (RARα) | RARα activity ratio (RARα) | SMILES |
| --- | --- | --- | --- | --- | --- | --- |
| 820 | 1420 | ~13-fold | ~29-fold | – | – | CC(C)Oc1c(Cl)cc(C(=O)Nc2ccc(C(=O)O)cc2)cc1Cl [AAA-004, 4-(3,5-Dichloro-4-isopropoxybenzamido)benzoic acid] |
| 792000 | 1583 | – | – | 396 | 4 | CC(C)Oc1cc(C(=O)Nc2ccc(C(=O)O)c(O)c2)cc(OC(C)C)c1Br [AAA-109, 4-(4-Bromo-3,5-diisopropoxybenzamido)-2-hydroxybenzoic acid] |
| 4390 | 90 | – | – | 10 | 9 | COc1cc(C(=O)Nc2ccc(C(=O)O)cc2)cc(Cl)c1OC(C)C [AAA-083, 4-(3-Chloro-4-isopropoxy-5-methoxybenzamido)benzoic acid] |
| >42000 | 5000 | – | – | 192 | 26 | CC(C)Oc1cc(C(=O)Nc2ccc(C(=O)O)cc2)cc(OC(C)C)c1F [AAA-119, 4-(4-Fluoro-3,5-diisopropoxybenzamido)benzoic acid] |
| 225 | 2600 | – | – | 96 | 27 | CC(C)Oc1cc(C(=O)Nc2ccc(C(=O)O)cc2)cc(OC(C)C)c1OC(C)C [AAA-059, 4-(3,4,5-Triisopropoxybenzamido)benzoic acid] |
